Assay results as given in patent US20040034019A1, “Piperazine and piperidine derivatives” (priority 2002, published 2004).
Counter-ions that a name gives are not always drawn.

These molecules were tested on rat embryo ventral mesencephalic cells (assay: Neuroprotection assay (NMDA neuroexcitotoxic injury, high affinity 3H-dopamine uptake)). Details: embryonic day 15 rat VM cell culture, NMDA (100-400 μM) for 20 hours.
Type: cell-based, Sprague-Dawley rat
Text: The neuroprotective activity of the compounds of this invention may be assayed using rat embryo ventral mesencephalic cells in culture which are subsequently exposed to the glutamate receptor agonist NMDA. This assay is described in detail in the example section.
The ventral mesencephalic region was dissected out of embryonic day 15 Sprague-Dawley rat embryos (Harlan), dissociated into single cell suspension by a combination of trypsinization and trituration (Costantini et al., Neurobiol Dis., pp. 97-106 (1998). Dissociated VM cells were plated into poly-L-ornithine-coated 96-well plates at a density of 85,000 cells/well in 100 uL of DMEM supplemented with 18% heat-inactivated horse serum, 0.24% glucose, 2 mM glutamine and 50 u/ml penicillin/streptomycin and incubated in a 5% CO2 incubator. After one day in culture (DIV1), the medium was replaced with 100 μL of a defined medium (DMEM supplemented with 1× N2 cocktail (Gibco-BRL), 0.12% glucose, 2 mM glutamine, and 50 units/ml penicillin/streptomycin) containing DMSO or various concentrations of the compounds of this invention. On DIV5, neuroexcitotoxic injury was induced by the addition of various concentrations of the glutamate receptor agonist NMDA (100-400 μM). Cultures were incubated with the neurotoxin for 20 hours and the effects of neurophilin compounds were assessed using high affinity ^3H-dopamine uptake according to a procedure published by Park and Mytilineou [Brain Res., 599, pp. 83-97 (1992)].
Molecule `CC(C)=CCN1CCC[C@H]1C(=O)N1CCC(Cc2ccc(F)cc2)CC1` [Compound 265] has an EC50 of less than 100 nM. For `C=CCN1CCC[C@H]1C(=O)N1CCC(Cc2ccc(F)cc2)CC1` [Compound 263], the EC50 was less than 100 nM. With `CN1CCC[C@H]1C(=O)N1CCN(C(c2ccccc2)c2ccccc2)CC1` [Compound 8] the EC50 was greater than 500 nM. `CCN1CC=C[C@H]1C(=O)N1CCN(C(c2ccc(F)cc2)c2ccc(F)cc2)CC1` [Compound 201] showed an EC50 greater than 500 nM. In the case of `CCN1CCCC[C@H]1C(=O)N1C[C@@H]2C[C@H]1CN2Cc1ccccc1` (stereo in doubt) [Compound 24, 1-(5-benzyl-2,5-diaza-bicyclo[2.2.1]-hept-2-yl)-1-((S)-1-ethyl-piperidino-2-yl)-methanone], the EC50 is reported as greater than 500 nM. In the case of `O=C(C1CCN(CC2CC2)CC1)N1CCC(Cc2ccc(F)cc2)CC1` [Compound 278], the EC50 is reported as less than 100 nM. With `CCN1CSC[C@H]1C(=O)N1CCN(C(c2ccc(F)cc2)c2ccc(F)cc2)CC1` [Compound 211] the EC50 was greater than 500 nM. For `CCN1CCCC[C@H]1C(=O)N1CCN(c2ccccc2)CC1` [Compound 39, ((2S)-1-Ethylpiperidin-2-yl)-(4-phenylpiperazin-1-yl)-methanone dihydrochloride], the EC50 was less than 100 nM. In the case of `O=C([C@@H]1C[C@@H](c2ccccc2)CN1Cc1ccccc1)N1CCN(C(c2ccc(F)cc2)c2ccc(F)cc2)CC1` [Compound 251], the EC50 is reported as greater than 500 nM. `CCN1CCCC[C@H]1C(=O)N1C[C@@H]2C[C@H]1CN2C(c1ccccc1)c1ccccc1` [Compound 17, 1-[(1S, 4S)-5-(1,1-Diphenylmethyl)-5-diazabicyclo[2.2.1]-hept-2-yl]-1-((S)-1-ethylpiperidin-2-yl)methanone] gave an EC50 of 100 to 500 nM. In the case of `CC1CC[C@@H](C(=O)N2CCC(Cc3ccccc3)CC2)N1Cc1ccccc1` (some centres unmarked) [Compound 227], the EC50 is reported as 100 to 500 nM. In the case of `CN1CSC(C)(C)[C@H]1C(=O)N1CCN(C(c2ccc(F)cc2)c2ccc(F)cc2)CC1` [Compound 216], the EC50 is reported as greater than 500 nM. `CCN1CC(c2ccccc2)C[C@H]1C(=O)N1CCC(Cc2ccccc2)CC1` (some centres unmarked) [Compound 250] showed an EC50 greater than 500 nM. In the case of `O=C([C@@H]1CC[C@H](c2ccccc2)N1Cc1ccccc1)N1CCC(Cc2ccccc2)CC1` [Compound 233], the EC50 is reported as 100 to 500 nM. For `CCN1[C@@H](C(=O)N2CCN(C(c3ccc(F)cc3)c3ccc(F)cc3)CC2)CC[C@H]1c1ccccc1` [Compound 213], the EC50 was greater than 500 nM. For `Cc1ccc(CN2CCC[C@H]2C(=O)N2CCC(Cc3ccc(F)cc3)CC2)cc1` [Compound 275], the EC50 was less than 100 nM. For `O=C([C@@H]1[C@H](c2ccccc2)CCN1Cc1ccccc1)N1CCC(Cc2ccccc2)CC1` [Compound 235], the EC50 was greater than 500 nM. In the case of `CCN1CC[C@H]1C(=O)N1CCC(Cc2ccccc2)CC1` [Compound 232], the EC50 is reported as 100 to 500 nM. `CCN1C(C)CC[C@H]1C(=O)N1CCC(Cc2ccccc2)CC1` (some centres unmarked) [Compound 240] showed an EC50 of less than 100 nM. `O=C([C@H]1CC[C@@H](c2ccccc2)N1Cc1ccccc1)N1CCN(C(c2ccc(F)cc2)c2ccc(F)cc2)CC1` [Compound 247] was tested, and the EC50 was greater than 500 nM. `CCN1CC[C@H]1C(=O)N1CCN(C(c2ccc(F)cc2)c2ccc(F)cc2)CC1` [Compound 254] was tested, and the EC50 was 100 to 500 nM. With `O=C(C1[C@H]2C[C@@H]2CN1Cc1ccccc1)N1CCN(C(c2ccc(F)cc2)c2ccc(F)cc2)CC1` (some centres unmarked) [Compound 239] the EC50 was greater than 500 nM. Molecule `CCN1CCC[C@]1(C)C(=O)N1CCC(Cc2ccccc2)CC1` [Compound 242] has an EC50 of less than 100 nM. Work on `CCN1CC[C@@H](c2ccccc2)[C@H]1C(=O)N1CCN(C(c2ccc(F)cc2)c2ccc(F)cc2)CC1` [Compound 217] yielded an EC50 greater than 500 nM. Work on `O=C([C@@H]1[C@H](c2ccccc2)CCN1Cc1ccccc1)N1CCN(C(c2ccc(F)cc2)c2ccc(F)cc2)CC1` [Compound 253] yielded an EC50 greater than 500 nM. For `C[C@H]1CCN(Cc2ccccc2)[C@@H]1C(=O)N1CCN(C(c2ccc(F)cc2)c2ccc(F)cc2)CC1` [Compound 241], the EC50 was greater than 500 nM. With `O=C([C@@H]1CCCN1Cc1ccccc1)N1CCN(C(c2ccc(F)cc2)c2ccc(F)cc2)CC1` [Compound 51, ((2S)-1-Benzylpyrrolidin-2-yl)-{4-bis-(4-fluorophenyl)methyl]-piperazin-1-yl}-methanone dihydrochloride] the EC50 was greater than 500 nM. For `O=C([C@@H]1CCCN1Cc1ccc(F)cc1)N1CCC(Cc2ccc(F)cc2)CC1` [Compound 271], the EC50 was less than 100 nM. `O=C(C1CCN(Cc2ccccc2)CC1)N1CCC(Cc2ccc(F)cc2)CC1` [Compound 272] gave an EC50 of 100 to 500 nM. `CCN1C[C@H]2C[C@@H]2C1C(=O)N1CCN(C(c2ccc(F)cc2)c2ccc(F)cc2)CC1` (some centres unmarked) [Compound 203] showed an EC50 of 100 to 500 nM. With `CCN1CCCC[C@H]1C(=O)N1CCN(Cc2ccc(Cl)cc2)CC1` [Compound 72, [4-(4-Chlorobenzyl)-piperazin-1-yl]-((2S)-1-ethylpiperidin-2-yl)-methanone dihydrochloride] the EC50 was greater than 500 nM. `CN1CSC(C)(C)[C@H]1C(=O)N1CCC(Cc2ccccc2)CC1` [Compound 200] showed an EC50 of 100 to 500 nM. For `CCN1C[C@H]2C[C@@H]2C1C(=O)N1CCC(Cc2ccccc2)CC1` (some centres unmarked) [Compound 236], the EC50 was 100 to 500 nM. `CCN1CC=C[C@H]1C(=O)N1CCC(Cc2ccccc2)CC1` [Compound 234] showed an EC50 greater than 500 nM. `CCN1CC[C@@H](c2ccccc2)[C@H]1C(=O)N1CCC(Cc2ccccc2)CC1` [Compound 252] gave an EC50 greater than 500 nM. Molecule `O=C([C@@H]1CCCN1C/C=C/c1ccccc1)N1CCC(Cc2ccc(F)cc2)CC1` [Compound 269] has an EC50 of 100 to 500 nM. For `CN1CCC=C(C(=O)N2CCN(C(c3ccccc3)c3ccccc3)CC2)C1` [Compound 4], the EC50 was greater than 500 nM. For `CCN1CCCC[C@H]1CN1CCN(C(c2ccc(F)cc2)c2ccc(F)cc2)CC1` [Compound 102, 1-[Bis-(4-fluorophenyl)methyl)-4-((2S)-1-ethylpiperidin-2-ylmethyl)-piperazine.], the EC50 was less than 100 nM. `CCN1CCC[C@]1(C)C(=O)N1CCN(C(c2ccc(F)cc2)c2ccc(F)cc2)CC1` [Compound 209] was tested, and the EC50 was 100 to 500 nM. Molecule `O=C([C@@H]1CC[C@H](c2ccccc2)N1Cc1ccccc1)N1CCN(C(c2ccc(F)cc2)c2ccc(F)cc2)CC1` [Compound 249] has an EC50 greater than 500 nM. `O=C([C@@H]1CCCN1Cc1cccc(F)c1)N1CCC(Cc2ccc(F)cc2)CC1` [Compound 279] gave an EC50 of less than 100 nM. Work on `O=C([C@@H]1CCCN1CC1CC1)N1CCC(Cc2ccc(F)cc2)CC1` [Compound 267] yielded an EC50 of less than 100 nM. `CCN1CC[C@H](C)[C@H]1C(=O)N1CCC(Cc2ccccc2)CC1` [Compound 238] showed an EC50 of less than 100 nM. With `CC1CC[C@@H](C(=O)N2CCN(C(c3ccc(F)cc3)c3ccc(F)cc3)CC2)N1Cc1ccccc1` (some centres unmarked) [Compound 243] the EC50 was greater than 500 nM. In the case of `O=C([C@@H]1C=CCN1Cc1ccccc1)N1CCN(C(c2ccc(F)cc2)c2ccc(F)cc2)CC1` [Compound 237], the EC50 is reported as greater than 500 nM. `C=CCN1CCCC[C@H]1C(=O)N1CCN(C(c2ccc(F)cc2)c2ccc(F)cc2)CC1` [Compound 64, ((2S)-1-Allylpiperidin-2-yl)-{4-[bis-(4-fluorophenyl)methyl]-piperazin-1-yl}-methanone] gave an EC50 greater than 500 nM. Molecule `O=C([C@@H]1C=CCN1Cc1ccccc1)N1CCC(Cc2ccccc2)CC1` [Compound 219] has an EC50 of 100 to 500 nM. `O=C1C[C@@H](C(=O)N2CCC(Cc3ccccc3)CC2)N(Cc2ccccc2)C1` [Compound 29, (2S)-1-Benzyl-5-(4-benzylpiperidine-1-carbonyl)-pyrrolidin-3-one] gave an EC50 of 100 to 500 nM. `CCN1[C@@H](C(=O)N2CCC(Cc3ccccc3)CC2)CC[C@H]1c1ccccc1` [Compound 246] showed an EC50 of less than 100 nM. `O=C(C1[C@H]2C[C@@H]2CN1Cc1ccccc1)N1CCC(Cc2ccccc2)CC1` (some centres unmarked) [Compound 221] was tested, and the EC50 was less than 100 nM. In the case of `C[C@@]1(C(=O)N2CCC(Cc3ccccc3)CC2)CCCN1Cc1ccccc1` [Compound 229], the EC50 is reported as greater than 500 nM. In the case of `CCN1C(C)CC[C@H]1C(=O)N1CCN(C(c2ccc(F)cc2)c2ccc(F)cc2)CC1` (some centres unmarked) [Compound 207], the EC50 is reported as 100 to 500 nM. For `CCN1[C@@H](c2ccccc2)CC[C@H]1C(=O)N1CCN(C(c2ccc(F)cc2)c2ccc(F)cc2)CC1` [Compound 225], the EC50 was less than 100 nM. For `CCN1CC[C@H](C)[C@H]1C(=O)N1CCN(C(c2ccc(F)cc2)c2ccc(F)cc2)CC1` [Compound 205], the EC50 was less than 100 nM. Work on `CN1[C@@H](C(=O)N2CCC(Cc3ccccc3)CC2)CC[C@H]1c1ccccc1` [Compound 206] yielded an EC50 of less than 100 nM. Work on `CCN1C[C@H](c2ccccc2)C[C@H]1C(=O)N1CCN(C(c2ccc(F)cc2)c2ccc(F)cc2)CC1` [Compound 215] yielded an EC50 greater than 500 nM. `CN1C[C@H](c2ccccc2)C[C@H]1C(=O)N1CCN(C(c2ccc(F)cc2)c2ccc(F)cc2)CC1` [Compound 224] gave an EC50 greater than 500 nM. `CON=C1C[C@@H](C(=O)N2CCC(Cc3ccccc3)CC2)N(Cc2ccccc2)C1` [Compound 31, (2S)-1-Benzyl-5-(4-benzylpiperidine-1-carbonyl)-pyrrolidin-3-one O-methyl-oxime] gave an EC50 of 100 to 500 nM. In the case of `C[C@H]1CCN(Cc2ccccc2)[C@@H]1C(=O)N1CCC(Cc2ccccc2)CC1` [Compound 223], the EC50 is reported as less than 100 nM. `O=C([C@H]1CC[C@@H](c2ccccc2)N1Cc1ccccc1)N1CCC(Cc2ccccc2)CC1` [Compound 231] was tested, and the EC50 was 100 to 500 nM. Work on `CCN1[C@@H](c2ccccc2)CC[C@H]1C(=O)N1CCC(Cc2ccccc2)CC1` [Compound 248] yielded an EC50 of 100 to 500 nM. `CCN1CCC[C@H]1C(=O)N1CCC(Cc2ccc(F)cc2)CC1` [Compound 259] showed an EC50 of 100 to 500 nM.
